Earlier results on one molecule are cited in US9925191B2, “Fumarate compounds, pharmaceutical compositions thereof, and methods of use” (priority 2015, dated 2018).

For the molecule `COC(=O)/C=C/C(=O)OC` [DMF, dimethylfumarate], the aqueous solubility entry is “poor aqueous solubility”.
